Source: PubChem BioAssay (NCI)
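GI50: concentration for 50% inhibition of growth. TGI: total growth inhibition.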

Tests used:
Assay in all cases: growth of human tumour cells (NCI), 384-well format
A498 renal = tested on: A498 renal
UACC-257 melanoma = tested on: UACC-257 melanoma
SF-295 CNS = tested on: SF-295 CNS
RPMI-8226 leukemia = tested on: RPMI-8226 leukemia
786-0 renal = tested on: 786-0 renal
RXF 393 renal = tested on: RXF 393 renal
U251 glioblastoma = tested on: U251 glioblastoma
NCI-H226 lung = tested on: NCI-H226 lung
HCT-15 colon = tested on: HCT-15 colon
K-562 leukemia = tested on: K-562 leukemia
DU-145 prostate = tested on: DU-145 prostate
SW-620 colon = tested on: SW-620 colon
CCRF-CEM leukemia = tested on: CCRF-CEM leukemia
A549 NSCLC = tested on: A549 NSCLC
LOX IMVI melanoma = tested on: LOX IMVI melanoma
IGROV1 ovarian = tested on: IGROV1 ovarian
SF-268 CNS = tested on: SF-268 CNS
UACC-62 melanoma = tested on: UACC-62 melanoma
HOP-62 NSCLC = tested on: HOP-62 NSCLC
NCI/ADR-RES ovarian = tested on: NCI/ADR-RES ovarian
NCI-H322M lung = tested on: NCI-H322M lung
COLO 205 colon = tested on: COLO 205 colon
PC-3 prostate = tested on: PC-3 prostate
UO-31 renal = tested on: UO-31 renal
MALME-3M melanoma = tested on: MALME-3M melanoma
OVCAR-3 ovarian = tested on: OVCAR-3 ovarian
M14 melanoma = tested on: M14 melanoma
MDA-MB-435 melanoma = tested on: MDA-MB-435 melanoma
HCT-116 colon = tested on: HCT-116 colon
NCI-H23 lung = tested on: NCI-H23 lung
KM12 colon = tested on: KM12 colon
BT-549 breast = tested on: BT-549 breast
MDA-MB-231 breast = tested on: MDA-MB-231 breast
HL-60(TB) leukemia = tested on: HL-60(TB) leukemia
SK-MEL-5 melanoma = tested on: SK-MEL-5 melanoma
SNB-75 CNS = tested on: SNB-75 CNS
HCC-2998 colon = tested on: HCC-2998 colon
ACHN renal = tested on: ACHN renal
HS 578T breast = tested on: HS 578T breast
CAKI-1 renal = tested on: CAKI-1 renal
OVCAR-8 ovarian = tested on: OVCAR-8 ovarian
T-47D breast = tested on: T-47D breast
SF-539 CNS = tested on: SF-539 CNS
TK-10 renal = tested on: TK-10 renal
NCI-H522 lung = tested on: NCI-H522 lung
SR leukemia = tested on: SR leukemia
MCF7 breast = tested on: MCF7 breast
EKVX NSCLC = tested on: EKVX NSCLC
OVCAR-4 ovarian = tested on: OVCAR-4 ovarian
HOP-92 NSCLC = tested on: HOP-92 NSCLC
SK-OV-3 ovarian = tested on: SK-OV-3 ovarian
SK-MEL-28 melanoma = tested on: SK-MEL-28 melanoma
NCI-H460 NSCLC = tested on: NCI-H460 NSCLC
HT29 colon = tested on: HT29 colon
MDA-MB-468 breast = tested on: MDA-MB-468 breast
OVCAR-5 ovarian = tested on: OVCAR-5 ovarian
SN12C renal = tested on: SN12C renal
MOLT-4 leukemia = tested on: MOLT-4 leukemia
SNB-19 CNS = tested on: SNB-19 CNS

## CCCCCCCCCCCCCCCC(=O)Nc1ccn([C@@H]2O[C@H](CO)[C@@H](O)[C@@H]2C#N)c(=O)n1
A498 renal
  GI50: 0.74 µM
  TGI: 15.8 µM
UACC-257 melanoma
  GI50: 20.1 µM
  TGI: 74.6 µM
SF-295 CNS
  GI50: 0.716 µM
  TGI: > 100 µM
RPMI-8226 leukemia
  GI50: 4.4 µM
  TGI: 20.6 µM
786-0 renal
  GI50: 0.0598 µM
  TGI: 29.8 µM
RXF 393 renal
  GI50: 16.6 µM
  TGI: > 100 µM
U251 glioblastoma
  GI50: 0.314 µM
  TGI: 23.5 µM
NCI-H226 lung
  GI50: 13.3 µM
  TGI: 54.9 µM
HCT-15 colon
  GI50: 0.946 µM
  TGI: 66.9 µM
K-562 leukemia
  GI50: 2.52 µM
  TGI: 17.7 µM
DU-145 prostate
  GI50: 0.751 µM
  TGI: 21.7 µM
SW-620 colon
  GI50: 4.81 µM
  TGI: > 100 µM
CCRF-CEM leukemia
  TGI: 0.12 µM
A549 NSCLC
  GI50: 1.32 µM
  TGI: 20 µM
LOX IMVI melanoma
  GI50: 3.42 µM
  TGI: 17.7 µM
IGROV1 ovarian
  GI50: 12.7 µM
  TGI: 86 µM
SF-268 CNS
  GI50: 0.43 µM
  TGI: 19.9 µM
UACC-62 melanoma
  GI50: 0.655 µM
  TGI: 23.5 µM
HOP-62 NSCLC
  GI50: 0.0542 µM
  TGI: 18.5 µM
NCI/ADR-RES ovarian
  GI50: 11.1 µM
  TGI: > 100 µM
NCI-H322M lung
  GI50: 14.6 µM
  TGI: 31 µM
COLO 205 colon
  GI50: 0.325 µM
  TGI: > 100 µM
PC-3 prostate
  GI50: 13.3 µM
  TGI: 92.5 µM
UO-31 renal
  GI50: 11.7 µM
  TGI: 45.7 µM
MALME-3M melanoma
  GI50: 10.5 µM
  TGI: 28 µM
OVCAR-3 ovarian
  GI50: 10.3 µM
  TGI: 37.9 µM
M14 melanoma
  GI50: 3 µM
  TGI: 22.4 µM
MDA-MB-435 melanoma
  GI50: 28.1 µM
  TGI: > 100 µM
HCT-116 colon
  GI50: 0.454 µM
  TGI: 18.8 µM
NCI-H23 lung
  GI50: 0.244 µM
  TGI: 15.5 µM
KM12 colon
  GI50: 6.5 µM
  TGI: 35.2 µM
BT-549 breast
  GI50: 5.56 µM
  TGI: 24.2 µM
MDA-MB-231 breast
  GI50: 11.1 µM
  TGI: > 100 µM
HL-60(TB) leukemia
  GI50: 0.368 µM
  TGI: 1.4 µM
SK-MEL-5 melanoma
  GI50: 7.71 µM
  TGI: 21 µM
SNB-75 CNS
  GI50: 4.66 µM
  TGI: 52.5 µM
HCC-2998 colon
  GI50: 0.464 µM
  TGI: 10.6 µM
ACHN renal
  GI50: 0.988 µM
  TGI: 39.1 µM
HS 578T breast
  GI50: 1.58 µM
  TGI: 20.4 µM
CAKI-1 renal
  GI50: 2.44 µM
  TGI: 43.6 µM
OVCAR-8 ovarian
  GI50: 0.292 µM
  TGI: 18.4 µM
T-47D breast
  GI50: 35.1 µM
  TGI: > 100 µM
SF-539 CNS
  GI50: 4.82 µM
  TGI: 38.3 µM
TK-10 renal
  GI50: 34.8 µM
  TGI: > 100 µM
NCI-H522 lung
  GI50: 6.11 µM
  TGI: 23.4 µM
SR leukemia
  GI50: 0.139 µM
  TGI: 0.339 µM
MCF7 breast
  GI50: 1.33 µM
  TGI: 24.3 µM
EKVX NSCLC
  GI50: 28.4 µM
  TGI: > 100 µM
OVCAR-4 ovarian
  GI50: 28.1 µM
  TGI: > 100 µM
HOP-92 NSCLC
  GI50: 4.71 µM
  TGI: 35.3 µM
SK-OV-3 ovarian
  GI50: 1.15 µM
  TGI: 39.1 µM
SK-MEL-28 melanoma
  GI50: 6.96 µM
  TGI: 30.1 µM
NCI-H460 NSCLC
  GI50: 0.143 µM
  TGI: 10.1 µM
HT29 colon
  GI50: 12.5 µM
  TGI: > 100 µM

## CC(C)(C(=O)NCC(F)(F)C(F)(F)F)C(=O)N[C@@H]1C(=O)Nc2ccccc2-c2ccccc21
MDA-MB-468 breast
  TGI: 33.3 µM
A498 renal
  GI50: 47 µM
  TGI: > 100 µM
SF-295 CNS
  GI50: 52.5 µM
  TGI: > 100 µM
RPMI-8226 leukemia
  GI50: 18.8 µM
  TGI: 76.4 µM
786-0 renal
  GI50: 58.5 µM
  TGI: > 100 µM
RXF 393 renal
  GI50: 27.3 µM
  TGI: > 100 µM
U251 glioblastoma
  GI50: > 100 µM
  TGI: > 100 µM
NCI-H226 lung
  GI50: 45.8 µM
  TGI: > 100 µM
HCT-15 colon
  GI50: 43.3 µM
  TGI: > 100 µM
K-562 leukemia
  GI50: 44.8 µM
  TGI: > 100 µM
DU-145 prostate
  GI50: 55.9 µM
  TGI: > 100 µM
SW-620 colon
  GI50: > 100 µM
  TGI: > 100 µM
CCRF-CEM leukemia
  GI50: 18.6 µM
  TGI: 69.8 µM
OVCAR-5 ovarian
  GI50: > 100 µM
  TGI: > 100 µM
A549 NSCLC
  GI50: 33.6 µM
  TGI: > 100 µM
LOX IMVI melanoma
  GI50: > 100 µM
  TGI: > 100 µM
IGROV1 ovarian
  GI50: 92.1 µM
  TGI: > 100 µM
SF-268 CNS
  GI50: > 100 µM
  TGI: > 100 µM
UACC-62 melanoma
  GI50: 20.4 µM
  TGI: > 100 µM
HOP-62 NSCLC
  GI50: 74.6 µM
  TGI: > 100 µM
NCI/ADR-RES ovarian
  GI50: 30 µM
  TGI: > 100 µM
NCI-H322M lung
  GI50: > 100 µM
  TGI: > 100 µM
COLO 205 colon
  GI50: 44.6 µM
  TGI: > 100 µM
PC-3 prostate
  GI50: 41.2 µM
  TGI: > 100 µM
UO-31 renal
  GI50: 74.6 µM
  TGI: > 100 µM
MALME-3M melanoma
  GI50: 22.2 µM
  TGI: > 100 µM
OVCAR-3 ovarian
  GI50: 36.3 µM
  TGI: > 100 µM
M14 melanoma
  GI50: 89.2 µM
  TGI: > 100 µM
MDA-MB-435 melanoma
  GI50: 92.7 µM
  TGI: > 100 µM
NCI-H23 lung
  GI50: 41.1 µM
  TGI: > 100 µM
SN12C renal
  GI50: > 100 µM
  TGI: > 100 µM
KM12 colon
  GI50: 53.2 µM
  TGI: > 100 µM
BT-549 breast
  GI50: 39.2 µM
  TGI: > 100 µM
MDA-MB-231 breast
  GI50: 51.2 µM
  TGI: > 100 µM
SK-MEL-5 melanoma
  GI50: 39.1 µM
  TGI: > 100 µM
SNB-75 CNS
  GI50: 63.6 µM
  TGI: > 100 µM
HCC-2998 colon
  GI50: 24 µM
  TGI: > 100 µM
ACHN renal
  GI50: 54.8 µM
  TGI: > 100 µM
HS 578T breast
  GI50: 32 µM
  TGI: > 100 µM
CAKI-1 renal
  GI50: > 100 µM
  TGI: > 100 µM
OVCAR-8 ovarian
  GI50: 69.9 µM
  TGI: > 100 µM
T-47D breast
  GI50: 6.31 µM
  TGI: 48.1 µM
SF-539 CNS
  GI50: > 100 µM
  TGI: > 100 µM
MOLT-4 leukemia
  GI50: 11.5 µM
  TGI: 25.6 µM
TK-10 renal
  GI50: 88.7 µM
  TGI: > 100 µM
NCI-H522 lung
  GI50: 42.4 µM
  TGI: > 100 µM
SR leukemia
  GI50: 23.3 µM
  TGI: > 100 µM
MCF7 breast
  GI50: 22 µM
  TGI: > 100 µM
EKVX NSCLC
  GI50: 29 µM
  TGI: > 100 µM
SNB-19 CNS
  GI50: 63.5 µM
  TGI: > 100 µM
OVCAR-4 ovarian
  GI50: 17.5 µM
  TGI: 76.3 µM
HOP-92 NSCLC
  GI50: 32.5 µM
  TGI: > 100 µM
SK-OV-3 ovarian
  GI50: 90.8 µM
  TGI: > 100 µM
SK-MEL-28 melanoma
  GI50: 46.9 µM
  TGI: > 100 µM
NCI-H460 NSCLC
  GI50: 46 µM
  TGI: > 100 µM
HT29 colon
  GI50: 37.2 µM
  TGI: > 100 µM
